Format in all cases: biochemical
One experiment addresses T1, Taka-amylase A (yeast) (Saccharomyces cerevisiae, UniProt P00724).
T1 sequence (P00724 20-532): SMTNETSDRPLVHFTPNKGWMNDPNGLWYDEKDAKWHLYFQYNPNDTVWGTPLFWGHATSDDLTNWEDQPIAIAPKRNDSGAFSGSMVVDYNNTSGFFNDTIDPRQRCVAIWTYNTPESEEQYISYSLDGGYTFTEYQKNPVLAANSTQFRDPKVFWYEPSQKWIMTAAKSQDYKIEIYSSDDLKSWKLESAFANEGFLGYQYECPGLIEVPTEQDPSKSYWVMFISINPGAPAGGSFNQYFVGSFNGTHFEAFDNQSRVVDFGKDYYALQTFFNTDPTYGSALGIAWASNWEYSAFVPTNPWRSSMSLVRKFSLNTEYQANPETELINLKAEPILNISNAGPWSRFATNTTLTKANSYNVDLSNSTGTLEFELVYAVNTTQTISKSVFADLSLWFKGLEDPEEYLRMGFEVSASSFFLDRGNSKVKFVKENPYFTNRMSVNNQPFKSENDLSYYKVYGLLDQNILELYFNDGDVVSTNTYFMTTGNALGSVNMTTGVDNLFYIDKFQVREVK
Briefly: Enzyme inhibition spectrum: Taka-amylase A (yeast), sucrose substrate. As to conditions: enzyme 100 μg; pH 5.5, 0.1% sucrose; measuring method A. Also noted: key: ++: ID50 ≤ 1.0 μg; +: ID50 ≥ 1.0 μg; -: no inhibition. As for the experimental part: (§1) Each enzyme (200 μl) is incubated with Trehalostatin (0.01-50 μg) in 0.05 M acetate (pH 5-6) or phosphate (pH 6-7) buffer solution at 37° C. for 5 minutes. Then 20 μl of the resulting solution is collected and added with a substrate to a final concentration shown in the Table, making the total volume of the solution 100 μl. The mixture is incubated at 37° C. for 10 minutes and then incubated in a boiling water bath for 3 minutes to terminate the reaction.
(§2) Determination of activity was made by measuring the increase of the product in the reaction system according to the following methods A-C.
(§3) The quantity of Trehalostatin which can effect 50% inhibition of enzyme activity under the above-described conditions was indicated as ID50.
(§4) (A) The glucose produced was determined by the new blood sugar test devised by Boehringer-Mannheim Ltd.

Another experiment addresses T2, α-glycosidase (yeast) (Saccharomyces cerevisiae, UniProt P53341).
T2 construct: purchased TOYOBO Co., Ltd; host or cells: yeast
Briefly: Enzyme inhibition spectrum: α-glycosidase (yeast). As to conditions: enzyme 1 μg; pH 7.1, 5 mM P-nitrophenyl glycoside; measuring method A. As to the method: as §1, §2, §3, §4

A further experiment has as its target T3, Isoamylase (Pseudomonas amyloderamosa, UniProt P10342).
T3 construct: purchased Shin Nippon Kagaku Co., Ltd
T3 sequence (P10342 27-776): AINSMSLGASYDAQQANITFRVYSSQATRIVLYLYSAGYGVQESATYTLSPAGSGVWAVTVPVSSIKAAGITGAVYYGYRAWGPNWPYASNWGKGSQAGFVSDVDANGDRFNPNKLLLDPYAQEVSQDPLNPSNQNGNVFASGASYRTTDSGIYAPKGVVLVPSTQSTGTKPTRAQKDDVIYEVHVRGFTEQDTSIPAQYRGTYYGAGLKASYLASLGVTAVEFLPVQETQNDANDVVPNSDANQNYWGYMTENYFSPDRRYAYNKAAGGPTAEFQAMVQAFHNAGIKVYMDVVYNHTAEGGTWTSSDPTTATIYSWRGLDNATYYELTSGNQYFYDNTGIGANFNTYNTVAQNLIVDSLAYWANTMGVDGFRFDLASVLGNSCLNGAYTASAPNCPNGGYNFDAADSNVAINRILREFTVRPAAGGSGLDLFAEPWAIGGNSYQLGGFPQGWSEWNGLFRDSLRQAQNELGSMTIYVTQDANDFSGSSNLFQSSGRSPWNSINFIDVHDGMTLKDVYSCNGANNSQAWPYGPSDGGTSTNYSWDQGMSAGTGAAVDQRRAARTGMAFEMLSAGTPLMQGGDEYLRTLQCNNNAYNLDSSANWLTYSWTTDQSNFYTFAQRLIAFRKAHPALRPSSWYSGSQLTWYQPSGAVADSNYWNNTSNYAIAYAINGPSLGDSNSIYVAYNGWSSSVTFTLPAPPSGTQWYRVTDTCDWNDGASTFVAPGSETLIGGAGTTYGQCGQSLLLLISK
Briefly: Enzyme inhibition spectrum: isoamylase. Also noted: key: ++: ID50 ≤ 1.0 μg; +: ID50 ≥ 1.0 μg; -: no inhibition. As to conditions: enzyme 100 μg; pH 5.5, 0.5% starch; measuring method C. As to the method:
as §1, §2, §3
(§5) (C) The increase of an amount of reducing sugar produced was measured according to the method shown in J. A. Thoma et al., The Enzyme, 3rd. ed., Ch. 5, pp. 115-189 (1971).

Another experiment has as its target T4, Taka-amylase A (Aspergillus oryzae, UniProt P0C1B3).
T4 construct: purchased SANKYO Co., Ltd
Briefly: Enzyme inhibition spectrum: Taka-amylase A, starch substrate. To be noted: enzyme 0.5 μg; pH 5.5, 0.5% starch; measuring method printed 69. Also noted: key: ++: ID50 ≤ 1.0 μg; +: ID50 ≥ 1.0 μg; -: no inhibition. As to the method:
as §1, §2, §3

Experiment [1] deals with T5, Trehalase (bovine colonic mucosa) (Bos taurus, UniProt E1B8N4).
T5 construct: mucosal acetone powder Sigma (M2766); purchased Sigma M2766; host or cells: bovine colonic mucosa, acetone powder
T5 sequence (E1B8N4 24-579): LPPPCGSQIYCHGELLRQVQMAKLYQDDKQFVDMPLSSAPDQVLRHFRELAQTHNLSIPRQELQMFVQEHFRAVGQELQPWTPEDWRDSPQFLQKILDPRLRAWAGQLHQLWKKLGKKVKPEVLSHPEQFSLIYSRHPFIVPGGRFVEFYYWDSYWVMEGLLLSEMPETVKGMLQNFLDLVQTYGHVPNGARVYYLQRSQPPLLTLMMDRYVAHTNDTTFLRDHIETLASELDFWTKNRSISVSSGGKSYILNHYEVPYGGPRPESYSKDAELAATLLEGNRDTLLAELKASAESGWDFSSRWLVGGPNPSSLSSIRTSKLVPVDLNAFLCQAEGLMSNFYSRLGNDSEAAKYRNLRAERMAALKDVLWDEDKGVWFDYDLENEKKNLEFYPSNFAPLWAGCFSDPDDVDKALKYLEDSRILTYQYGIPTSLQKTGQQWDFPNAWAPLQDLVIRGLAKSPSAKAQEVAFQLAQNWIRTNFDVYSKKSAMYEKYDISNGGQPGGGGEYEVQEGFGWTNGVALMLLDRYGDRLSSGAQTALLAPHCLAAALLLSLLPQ
Briefly: Enzyme inhibition spectrum: trehalase (bovine colonic mucosa). To be noted: enzyme 2500 μg; pH 5.5, 5 mM trehalase; measuring method A. As for the experimental part:
as §1, §2, §3, §4

Experiment [2] concerns Invertase (bovine colonic mucosa). Briefly: Enzyme inhibition spectrum: invertase (bovine colonic mucosa). To be noted: enzyme 5000 μg; pH 6.0, 0.1% sucrose; measuring method A. Also noted: key: ++: ID50 ≤ 1.0 μg; +: ID50 ≥ 1.0 μg; -: no inhibition. As to the method: as §1, §2, §3, §4
The test system of the next experiment is exo-β-1,3-glucanase. Briefly: Enzyme inhibition spectrum: exo-β-1,3-glucanase. Also noted: key: ++: ID50 ≤ 1.0 μg; +: ID50 ≥ 1.0 μg; -: no inhibition. To be noted: enzyme 15 μg; pH 6.0, 0.1% laminarin; measuring method B. As to the method:
as §1, §2, §3
(B) An amount of glucose produced was determined according to the method shown in D. R. Barras and B. A. Stone, Biochim. Biophys. Acta, 191, 329 (1969).

Experiment [3] has as its target T6, β-glycosidase (Asp. aculeatus) (Aspergillus aculeatus, UniProt P48825).
T6 construct: a crude enzyme (prepared by University of Osaka Prefecture); host or cells: Aspergillus aculeatus
Nature of the experiment: Enzyme inhibition spectrum: β-glycosidase (Asp. aculeatus). To be noted: enzyme 15 μg; pH 5.0, 0.5% salicin; measuring method A. As to the method:
as §1, §2, §3, §4

Experiment [4] concerns the target Bacterial saccharifying amylase (Bacillus subtilis, UniProt P00691). Nature of the experiment: Enzyme inhibition spectrum: bacterial saccharifying amylase. Also noted: key: ++: ID50 ≤ 1.0 μg; +: ID50 ≥ 1.0 μg; -: no inhibition. To be noted: enzyme 4 μg; pH 5.0, 0.5% starch; measuring method C. As for the experimental part:
as §1, §2, §3, §5

In experiment [5] the target is Bacterial liquefying amylase (Bacillus amyloliquefaciens, UniProt P00692). Nature of the experiment: Enzyme inhibition spectrum: bacterial liquefying amylase. Also noted: key: ++: ID50 ≤ 1.0 μg; +: ID50 ≥ 1.0 μg; -: no inhibition. As to conditions: enzyme 0.4 μg; pH 5.0, 0.5% starch; measuring method C. As for the experimental part:
as §1, §2, §3, §5

Bacterial saccharifying amylase, sequence (P00691 42-659): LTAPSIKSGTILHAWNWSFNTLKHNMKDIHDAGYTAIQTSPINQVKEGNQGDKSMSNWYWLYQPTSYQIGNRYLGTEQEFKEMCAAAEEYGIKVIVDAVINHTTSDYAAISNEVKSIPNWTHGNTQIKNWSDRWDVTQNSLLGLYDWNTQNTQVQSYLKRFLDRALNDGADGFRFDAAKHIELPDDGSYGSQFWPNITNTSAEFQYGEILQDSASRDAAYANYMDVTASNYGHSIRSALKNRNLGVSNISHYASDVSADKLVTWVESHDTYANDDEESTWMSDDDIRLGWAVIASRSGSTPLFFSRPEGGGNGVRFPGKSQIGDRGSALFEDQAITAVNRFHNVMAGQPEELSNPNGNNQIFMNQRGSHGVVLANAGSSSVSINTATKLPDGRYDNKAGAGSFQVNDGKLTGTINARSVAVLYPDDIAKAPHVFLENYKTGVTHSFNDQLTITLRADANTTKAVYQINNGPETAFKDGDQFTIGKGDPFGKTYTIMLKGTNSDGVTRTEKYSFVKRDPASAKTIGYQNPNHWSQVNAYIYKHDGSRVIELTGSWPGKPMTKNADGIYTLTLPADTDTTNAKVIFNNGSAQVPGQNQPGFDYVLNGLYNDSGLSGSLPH
T2 sequence (P53341 whole entry): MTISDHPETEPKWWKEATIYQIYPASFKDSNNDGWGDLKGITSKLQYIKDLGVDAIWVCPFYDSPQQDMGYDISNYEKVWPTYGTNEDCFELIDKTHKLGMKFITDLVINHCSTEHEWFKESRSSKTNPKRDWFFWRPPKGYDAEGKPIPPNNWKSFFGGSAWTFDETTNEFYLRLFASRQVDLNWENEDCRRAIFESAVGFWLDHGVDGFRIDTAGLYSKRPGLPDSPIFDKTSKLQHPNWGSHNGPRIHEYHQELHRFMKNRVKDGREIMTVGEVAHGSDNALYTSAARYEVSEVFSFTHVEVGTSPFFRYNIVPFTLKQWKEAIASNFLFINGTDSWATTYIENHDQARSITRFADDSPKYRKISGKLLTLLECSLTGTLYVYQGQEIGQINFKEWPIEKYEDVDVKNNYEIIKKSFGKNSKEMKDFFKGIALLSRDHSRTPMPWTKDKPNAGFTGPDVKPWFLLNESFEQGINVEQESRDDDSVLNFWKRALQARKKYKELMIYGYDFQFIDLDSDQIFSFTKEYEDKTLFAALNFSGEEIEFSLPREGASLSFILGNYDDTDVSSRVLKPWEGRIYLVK
T6 sequence (P48825 20-860): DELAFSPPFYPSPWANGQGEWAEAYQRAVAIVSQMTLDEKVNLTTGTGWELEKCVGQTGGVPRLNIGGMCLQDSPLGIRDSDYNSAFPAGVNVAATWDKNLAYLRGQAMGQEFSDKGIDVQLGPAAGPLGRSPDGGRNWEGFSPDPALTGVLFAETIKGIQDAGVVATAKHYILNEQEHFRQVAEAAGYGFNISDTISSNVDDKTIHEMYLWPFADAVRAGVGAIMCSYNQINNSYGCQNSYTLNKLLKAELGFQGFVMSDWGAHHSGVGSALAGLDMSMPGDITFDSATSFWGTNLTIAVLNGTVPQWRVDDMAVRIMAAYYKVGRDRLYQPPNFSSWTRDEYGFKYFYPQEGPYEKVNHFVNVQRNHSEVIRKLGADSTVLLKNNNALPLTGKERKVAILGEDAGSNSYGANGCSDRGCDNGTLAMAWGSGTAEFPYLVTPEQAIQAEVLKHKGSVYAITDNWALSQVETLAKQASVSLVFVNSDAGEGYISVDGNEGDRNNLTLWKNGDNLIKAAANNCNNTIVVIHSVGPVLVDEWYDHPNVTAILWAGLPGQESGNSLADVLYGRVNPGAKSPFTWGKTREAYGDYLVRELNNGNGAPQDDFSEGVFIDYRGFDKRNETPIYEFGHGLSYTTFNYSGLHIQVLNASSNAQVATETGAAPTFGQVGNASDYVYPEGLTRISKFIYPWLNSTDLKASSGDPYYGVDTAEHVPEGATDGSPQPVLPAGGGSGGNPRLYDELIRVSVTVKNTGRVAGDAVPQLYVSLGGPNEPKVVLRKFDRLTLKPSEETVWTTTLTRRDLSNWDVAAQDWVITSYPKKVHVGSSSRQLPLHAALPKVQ
Bacterial liquefying amylase, sequence (P00692 32-514): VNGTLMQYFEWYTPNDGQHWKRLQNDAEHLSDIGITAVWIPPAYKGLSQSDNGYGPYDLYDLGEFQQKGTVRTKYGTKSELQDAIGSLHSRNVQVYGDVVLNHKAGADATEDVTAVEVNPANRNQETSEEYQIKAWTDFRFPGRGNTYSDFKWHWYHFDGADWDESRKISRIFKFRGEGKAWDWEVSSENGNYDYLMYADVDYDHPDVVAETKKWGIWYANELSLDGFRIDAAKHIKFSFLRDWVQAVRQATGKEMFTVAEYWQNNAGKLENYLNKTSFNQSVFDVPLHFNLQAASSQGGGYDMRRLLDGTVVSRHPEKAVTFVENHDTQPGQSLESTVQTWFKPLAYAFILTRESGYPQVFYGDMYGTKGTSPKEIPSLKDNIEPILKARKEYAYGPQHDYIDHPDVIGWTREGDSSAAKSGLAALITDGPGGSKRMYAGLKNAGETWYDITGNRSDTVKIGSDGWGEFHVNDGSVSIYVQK

For `OC[C@H]1O[C@H](N=C2NC3C(O2)C(O)C(O)C3(O)CO)[C@H](O)[C@@H](O)[C@@H]1O` (stereo partly shown) [Trehalostatin], the “Action (ID50)” value at Taka-amylase A (yeast) is given as “-”; at α-glycosidase (yeast), “+ (ID50 ≥ 1.0 μg)”; on Isoamylase it was “-”; at Taka-amylase A it was “-”; in [1] it was “+ (ID50 ≥ 1.0 μg)”; in experiment [2], “-”. The “Action (ID50)” value was “-” in the experiment on exo-β-1,3-glucanase, “+ (ID50 ≥ 1.0 μg)” in [3], “-” in experiment [4] and “-” in [5].

The values are drawn from patent US5372816A, “Trehalostatin and process for the preparation thereof” (Suntory Limited, priority 1989, dated 1994).
